Measurements: patent publication US20070265196A1, “Method of Modulating Pro-Inflammatory and Inflammatory Activity Mediated by C-Reactive Protein” (MEDVET SCIENCE PTY., LTD., priority 2004, published 2007)
Entries after “also recorded” stand apart in the source; their conditions may differ.

Legend:
[1] = tested on: C-reactive protein-induced expression of E-selectin, VCAM-1 and ICAM-1; assay: Inhibition of C-reactive protein-induced cell-surface adhesion molecule expression in HUVEC (flow cytometry); format: cell-based, human; settings: for effect on C-reactive protein-induced expression of adhesion molecules (E-selectin, ICAM-1, VCAM-1): 16 hrs preincubation in serum-free medium, then C-reactive protein 10 μg/ml for 5 hrs; for effect of antioxidant on PLPC-dependent inhibition of C-reactive protein-induced E-selectin expression: HUVEC preincubated 16 hrs with 35 μM PLPC in presence of the antioxidant
Description: (§1) Human umbilical vein endothelial cells (HUVEC) and bovine aortic endothelial cells (BAEC) were isolated and cultured as described previously (Wall et al (1978)). Cells were used at passages 2 to 3 for HUVEC and passages 3-10 for BAEC. For detection of adhesion molecules, HUVEC were incubated overnight in Opti-MEM serum free medium (Gibco, Invitrogen Corporation) in the presence or absence of HDL and then treated with recombinant human C-reactive protein (Calbiochem) for 5 hrs unless indicated otherwise. After the treatment, cells were washed with medium M199 and incubated with primary monoclonal antibodies against E-selectin, VCAM-1, ICAM-1 or isotype-matched nonrelevant control antibodies for 30 min as described previously (Gamble et al (1993)). Cells were then incubated with fluorescein isothiocyanate-conjugated secondary antibody for 30 min. The cells were then harvested by trypsinization and fixed in 2.5% formaldehyde (antibody binding prior to trypsinizing has been reported to prevent the partial hydrolyzation of the surface adhesion molecules (Grabner et al (2000))). The expression of cell-surface adhesion molecules was measured as fluorescence intensity by use of a Coulter Epics Profile XL flow cytometer. Unless stated otherwise, the results represent mean fluorescence of the positive population±SEM from one experiment and are representative at least three independent experiments. Differences between means were evaluated by Student's t-tests. ANOVA was used to identify statistical significance of multiple comparisons.
As described previously (Ashby et al (1998)) the lipoproteins were isolated from normal healthy adult donors by sequential ultracentrifugation in their appropriate density range: total HDL 1.07<d<1.21 and LDL 1.019<d<1.055 g/ml. The resulting preparations of lipoproteins were dialyzed against endotoxin-free PBS (pH 7.4) prior to use. Discoidal reconstituted HDL containing apoA-I and PLPC, were prepared by the cholate dialysis method described by Matz (1982). Small unilamellar vesicles (SUVs) containing either PLPC or 1-palmitoyl-2-oleoyl-sn-glycero-3-phosphocholine (POPC), in butylated hydroxytoluene (BHT) (molar ratio of PC to BHT, 10:1), were prepared in PBS precisely as described by Jonas (1986). Oxidation of SUV was produced by incubation with 5 μM CuSO4 in the absence of BHT for 48 hours at 37° C.

[2] = tested on: HUVEC expression of E-selectin, VCAM-1 and ICAM-1; assay: Induction of adhesion molecule expression in HUVEC by the substance itself (flow cytometry); format: cell-based, human; settings: for effect of heating at 65° C. for 1 hour on activity (E-selectin induction): heated 65° C., serum free medium
Description: as §1

[3] = tested on: adherence of U937 cells to C-reactive protein-activated BAEC; assay: Adherence of U937 cells to C-reactive protein-treated BAEC; format: cell-based, bovine; settings: BAEC incubated with C-reactive protein for 24 hours
Description: U937 cells (CRL 1593.2; ATCC) were colorimetrically labelled with 0.2 mg/ml 3-(4,5-dimethylthiazol-2-yl)-2,5-diphenyltetrazolium bromide (MTT; Promega) in normal culture medium for 30 min at 37° C. The cells were collected by low-speed centrifugation and resuspended at a density of 2×10^5 cells/ml in medium without FCS. BAECs were seeded into 24-well plates and treated as desired in triplicate. After the treatment, BAECs were washed twice with RPMI-1640 medium. The MTT-labelled U937 cell suspension (200 μl/well) was then added into the BAEC cultures and incubated for 30 min at 37° C. Non-adherent cells were removed by rinsing the plates three times with PBS, and the number of adherent cells was counted under microscopy at least 4 fields per well.

Compound: CCCCC/C=C\C/C=C\CCCCCCCC(=O)OC(COC(=O)CCCCCCCCCCCCCCC)COP(=O)([O-])OCC[N+](C)(C)C (stereo not drawn) [PLPC]
- C-reactive protein-induced E-selectin expression, substance added simultaneously with C-reactive protein ([1]; HUVEC, 35 μM, C-reactive protein 10 μg/ml 5 hrs, no pre-incubation): not
- inhibitory effect on C-reactive protein-induced adhesion molecule expression after 1-hour pre-incubation ([1]; HUVEC, 1-hour pre-incubation): no inhibitory effect
- inhibitory effect on C-reactive protein-induced adhesion molecule expression when added simultaneously with C-reactive protein ([1]; HUVEC, no pre-incubation): no inhibitory effect
- persistence of inhibitory effect when removed from the medium after 16-hour pre-incubation before C-reactive protein activation ([1]; HUVEC, washout): did not persist
- effect of the substance alone on adhesion molecule expression ([2]; HUVEC): had no effect

Compound: CCCCCCCC/C=C\CCCCCCCC(=O)O[C@H](COC(=O)CCCCCCCCCCCCCCC)COP(=O)([O-])OCC[N+](C)(C)C [POPC SUVs, 1-palmitoyl-2-oleoyl-sn-glycero-3-phosphocholine]
- effect on C-reactive protein-induced expression of adhesion molecules (E-selectin, ICAM-1, VCAM-1) ([1]; HUVEC): no inhibitory effect
- effect of CuSO4-exposed phospholipid on C-reactive protein-induced adhesion molecule expression ([1]; HUVEC, control exposed to CuSO4): did not affect

Compound: CC(Cc1ccc(O)c(O)c1)C(C)Cc1ccc(O)c(O)c1 (stereo not drawn) [nordihydroguaiaretic acid]
- effect of antioxidant on PLPC-dependent inhibition of C-reactive protein-induced E-selectin expression [1]: reversed in a dose-dependent manner
- effect of antioxidant on PLPC-dependent inhibition of C-reactive protein-induced E-selectin expression ([1]; listed as NDGA): completely abolish

Compound: C[N+](C)(C)CCOP(=O)(O)O [phosphorylcholine]
- effect on the C-reactive protein's activity ([1]; up to 100 μM added to the medium): had no effect

Compound: CCCCCCCCCCC[C@@H](C[C@@H]1OC(=O)[C@H]1CCCCCC)OC(=O)[C@H](CC(C)C)NC=O [tetrahydrolipstatin]
- effect of lipase inhibitor treatment of cells on the anti-inflammatory activity of PLPC ([1]; HUVEC): not affected

Compound: Cc1c(C)c2c(c(C)c1O)CC[C@@](C)(CCC[C@H](C)CCC[C@H](C)CCCC(C)C)O2 [α-tocopherol]
- effect of antioxidant on PLPC-dependent inhibition of C-reactive protein-induced E-selectin expression [1]: reversed in a dose-dependent manner; also recorded: completely abolish
- effect of the substance alone on adhesion molecule expression ([2]; HUVEC): had no effect

Compound: C-reactive protein: recombinant human C-reactive protein (Calbiochem), proinflammatory stimulus
- increase in adhesion of U937 cells to BAEC [3]: more than 6 fold
- concentration at which dose-dependent activity reaches a maximum ([2]; E-selectin expression, HUVEC stimulated 5 hrs): 10 to 20 µg/mL
- cell surface expression of E-selectin VCAM-1 and ICAM-1 ([2]; HUVEC treated with C-reactive protein (10 μg/ml, 5 hrs)): significant increase
- inflammatory effect in fresh serum-free medium ([2]; HUVEC, fresh (unconditioned) serum-free medium): no inflammatory effect
- effect of heating at 65° C. for 1 hour on activity (E-selectin induction) ([2]; HUVEC): completely eliminated

Compound: Lipopolysaccharide [LPS]
- induction of adhesion molecule expression ([2]; HUVEC, concentrations of up to 1 ng/ml): insufficient to induce
- effect of heating at 65° C. for 1 hour on activity (E-selectin induction) ([2]; HUVEC): did not alter

Compound: lipid-free apoA-I: lipid-free apolipoprotein A-I, the protein component of rHDL
- effect on C-reactive protein-induced expression of adhesion molecules (E-selectin, ICAM-1, VCAM-1) ([1]; HUVEC): had no effect
